The subject of this assay is sPLA2. The conditions noted are these: CHEC-9 0.4 μM, LY31127 5.0 μM, whole blood, two 90 min periods at 4°.

`CCc1c(CC(N)=O)c2cc(OCCCP(=O)(O)O)ccc2n1Cc1ccccc1` [LY311727]: the “comparison of sPLA2 inhibition by the inhibitors alone and in sequence” value is given as “equally effective inhibitors”.
